Experimental findings from ChEMBL document CHEMBL3751690, “Oxidative burst inhibition, cytotoxicity and antibacterial acriquinoline alkaloids from Citrus reticulate (Blanco)” (Bioorg Med Chem Lett, 2016) are described below.

A short description of assay [1]: Inhibition of serum-opsonized zymosan-induced oxidative burst in whole blood (unknown origin). In kind it is functional, tissue-based.
Assay [2] can be described thus: Cytotoxicity against human PC3 cells after 3 days by MTT assay. Format: functional, cell-based. Particulars: PC-3, 72 h.
A further assay concerns Bacillus subtilis. Briefly: Antimicrobial activity against Bacillus subtilis after 48 hrs by paper disk diffusion assay. In kind it is functional.
The test system of a further assay is Staphylococcus aureus. The experiment in a line: Antimicrobial activity against Staphylococcus aureus after 48 hrs by paper disk diffusion assay. Format: functional.
The subject of a further assay is Escherichia coli. Briefly: Antimicrobial activity against Escherichia coli after 48 hrs by paper disk diffusion assay. Format: functional.
For a further assay, the system named is Rhizomucor miehei. The experiment in a line: Antimicrobial activity against Mucor miehei after 48 hrs by paper disk diffusion assay. In kind it is functional.
A further assay concerns Candida albicans. Briefly: Antimicrobial activity against Candida albicans after 48 hrs by paper disk diffusion assay. In kind it is functional.
The next assay relates to Aphanomyces cochlioides. The experiment in a line: Antimicrobial activity against Aphanomyces cochlioides after 48 hrs by paper disk diffusion assay. Format: functional.
Another assay concerns Globisporangium ultimum. Briefly: Antimicrobial activity against Pythium ultimum after 48 hrs by paper disk diffusion assay. Format: functional.
Another assay relates to Rhizoctonia solani. Briefly: Antimicrobial activity against Rhizoctonia solani after 48 hrs by paper disk diffusion assay. In kind it is functional.

Turning to `COc1cccc2c(=O)c3c(O)cc4c(c3n(C)c12)C=CC(C)(C)O4`, the figures for the 50% inhibitory concentration (IC50) in assay [1] and in assay [2] were 4.5 µM and 70 µM, respectively. In addition, the MIC in the assay on Bacillus subtilis, with Staphylococcus aureus, against Escherichia coli, against Rhizomucor miehei, in the assay on Candida albicans and with Aphanomyces cochlioides was above 1 µg/mL in each case. Also, the MIC against Globisporangium ultimum and in the assay on Rhizoctonia solani was above 1 µg/mL in each case.
For the molecule `COc1c2ccoc2c(OC)c2oc(=O)ccc12` [ISOPIMPINELLIN], the IC50 in assay [1] is 9.4 µM; in assay [2], 99.8 µM. In addition, the MIC against Bacillus subtilis, in the assay with Staphylococcus aureus, with Escherichia coli, against Rhizomucor miehei, against Candida albicans and with Aphanomyces cochlioides was above 1 µg/mL throughout. Further, the minimal inhibitory concentration (MIC) with Globisporangium ultimum and with Rhizoctonia solani was above 1 µg/mL in each case.
`CC(C)Cc1ccc(C(C)C(=O)O)cc1` (configuration not stated) [IBUPROFEN] returned an IC50 in assay [1] of 11.2 µM.
Consider `CC1(C)C=Cc2c(cc(O)c3c(=O)cc(-c4ccc(O)cc4)oc23)O1` [ATALANTOFLAVONE], for which the IC50 stood at 10.5 µM in assay [1] and 55.6 µM in [2]. Also, the minimum inhibitory concentration (MIC) in the assay on Bacillus subtilis, in the assay on Staphylococcus aureus, with Escherichia coli, against Rhizomucor miehei, in the assay with Candida albicans and in the assay on Aphanomyces cochlioides was above 1 µg/mL each time. Besides, the MIC with Globisporangium ultimum and with Rhizoctonia solani was above 1 µg/mL each time.
As for `COc1cc2oc(=O)ccc2cc1CC=C(C)C` [SUBEROSIN], the half-inhibitory concentration (IC50) in assay [1] amounted to 18.3 µM; in assay [2], 51.3 µM. Also, the minimum inhibitory concentration (MIC) against Bacillus subtilis, with Staphylococcus aureus, against Escherichia coli, with Rhizomucor miehei, against Candida albicans and with Aphanomyces cochlioides was above 1 µg/mL in each case. In addition, the minimal inhibitory concentration (MIC) against Globisporangium ultimum and with Rhizoctonia solani was above 1 µg/mL each time.
Consider `COc1cccc2c1C(=O)c1c(O)c3c(c(O)c1C2=O)C[C@@](O)(C(=O)CO)C[C@@H]3O[C@H]1C[C@H](N)[C@H](O)[C@H](C)O1` [DOXORUBICIN], for which the IC50 in [2] is 0.9 µM.
For the molecule `COc1ccc2c(=O)c3c(O)cc4c(c3n(C)c2c1C1(O)C(=O)c2cc(C)cc3ccc(=O)n1c23)C=CC(C)(C)O4` (configuration not stated), the half-maximal inhibitory concentration (IC50) in assay [1] was 20.1 µM; in assay [2] it was 75.8 µM. Further, the MIC with Bacillus subtilis, against Staphylococcus aureus, with Escherichia coli, in the assay with Rhizomucor miehei, in the assay with Candida albicans and against Aphanomyces cochlioides was above 1 µg/mL each time. For the same molecule, the MIC against Globisporangium ultimum and with Rhizoctonia solani was above 1 µg/mL each time.
Turning to `Cc1cc2c3c(ccc(=O)n3C(O)(c3c(O)ccc4c(=O)c5c(O)cc6c(c5n(C)c34)C=CC(C)(C)O6)C2=O)c1` (configuration not stated), the results for the half-maximal inhibitory concentration (IC50) in assay [1] and in assay [2] were 17.2 µM and 71.5 µM, respectively. Besides, the MIC in the assay on Bacillus subtilis, with Staphylococcus aureus, against Escherichia coli, in the assay on Rhizomucor miehei, against Candida albicans and against Aphanomyces cochlioides was above 1 µg/mL each time. The minimum inhibitory concentration (MIC) against Globisporangium ultimum and against Rhizoctonia solani was above 1 µg/mL throughout.
Take `COc1cc(O)c(C=O)cc1OC`: the 50% inhibitory concentration (IC50) in assay [1] came out at 16.4 µM; in assay [2], 60.1 µM. Further, the MIC in the assay with Bacillus subtilis, with Staphylococcus aureus, against Escherichia coli, against Rhizomucor miehei, in the assay on Candida albicans and in the assay with Aphanomyces cochlioides was above 1 µg/mL each time. Further, the minimum inhibitory concentration (MIC) against Globisporangium ultimum and with Rhizoctonia solani was above 1 µg/mL throughout.
Take `COc1cc2ccc(=O)oc2cc1OC` [SCOPARONE]: the half-inhibitory concentration (IC50) came to 11.4 µM in assay [1] and 54.4 µM in [2]. In addition, the MIC in the assay on Bacillus subtilis, with Staphylococcus aureus, in the assay with Escherichia coli, with Rhizomucor miehei, in the assay on Candida albicans and with Aphanomyces cochlioides was above 1 µg/mL in each case. The MIC against Globisporangium ultimum and in the assay with Rhizoctonia solani was above 1 µg/mL throughout.
